Values after ≈ are worked out from the molar mass of the structure shown. Where two headings read alike, the source gives them in different places.
Tests used:
Type in all cases: cell-based
[1] = test system: Salmonella enteritidis gaertner; experiment: MIC against Salmonella enteritidis gaertner
Enterobacter 0655 = experiment: MIC against Enterobacter 0655
[2] = test system: Pseudomonas aeruginosa, IAM 1095; experiment: MIC against Pseudomonas aeruginosa IAM 1095
Escherichia coli, NIHJ = experiment: MIC against Escherichia coli NIHJ
[3] = test system: Staphylococcus aureus, MS 27; experiment: MIC against Staphylococcus aureus MS 27
Shigella sonnei E 33 = experiment: MIC against Shigella sonnei E 33
[4] = test system: Klebsiella pneumoniae, ATCC 10031; experiment: MIC against Klebsiella pneumoniae ATCC 10031
[5] = test system: Staphylococcus aureus, ATCC 6538 P; experiment: MIC against Staphylococcus aureus ATCC 6538 P
Escherichia coli, RGN 14 = experiment: MIC against Escherichia coli RGN 14; conditions: Table 3
Proteus rettgeri, ACR = experiment: MIC against Proteus rettgeri ACR; conditions: for MIC: Providencia rettgeri
Proteus vulgaris, OX 19 = experiment: MIC against Proteus vulgaris OX 19; conditions: for minimum inhibitory concentration (MIC): Table 3
[6] = test system: Gram-positive bacteria and Gram-negative bacteria; experiment: antimicrobial / bacterium-inhibiting activity (in words)
[7] = test system: Escherichia coli, RGN 238; experiment: MIC against Escherichia coli RGN 238; conditions: Table 3
Escherichia coli, W 3630 = experiment: MIC against Escherichia coli W 3630
Pseudomonas aeruginosa = experiment: MIC against Pseudomonas aeruginosa (strain not given)
[8] = Table 3, read-out: minimum inhibitory concentration (MIC)
[9] = Table 1, read-out: minimum inhibitory concentration (MIC)

CC(=O)OCC1=C(C(=O)O)N2C(=O)C(NC(=O)C[S+]([O-])c3ccccc3)C2SC1 (single isomer, unassigned) [Example 19, 7-(phenylsulfinylacetamido)cephalosporanic acid]
minimum inhibitory concentration (MIC) ([1]; Table 3): 3.2
MIC (Enterobacter 0655; [8]): 100 µg/mL (≈ 228 µM)
MIC ([2]; IAM1095, Table 3, read-out: minimum inhibitory concentration (MIC)): 100 µg/mL (≈ 228 µM)
minimum inhibitory concentration (MIC) (Escherichia coli, NIHJ; Table 3): 1.6
minimum inhibitory concentration (MIC) ([3]; Table 3, MS 27): 0.8
minimum inhibitory concentration (MIC) (Shigella sonnei E 33; Table 3): 6.3
minimum inhibitory concentration (MIC) ([4]; Table 3): 1.6
minimum inhibitory concentration (MIC) ([5]; Table 3, 6538 P): 0.2
minimum inhibitory concentration (MIC) (Escherichia coli, RGN 14): 12.5
MIC (Proteus rettgeri, ACR; [8]): 100 µg/mL (≈ 228 µM)
minimum inhibitory concentration (MIC) (Proteus vulgaris, OX 19): 1.6

O=C(C[S+]([O-])c1cccs1)NC1C(=O)N2C(C(=O)[O-])=C(C[n+]3ccccc3)CSC12 (stereo not drawn) [Example 6, 7-(2-thienylsulfinylacetamido)-3-(1-pyridiniummethyl)-3-cephem-4-carboxylate]
antimicrobial activity [6]: excellent

CC(=O)OCC1=C(C(=O)O)N2C(=O)C(NC(=O)C[S+]([O-])c3ccccc3)C2SC1 (single isomer, unassigned) [comparative product, 7-(Phenylsulfinylacetamido)cephalosporanic acid, reference compound]
minimum inhibitory concentration (MIC) ([1]; Table 3): 50
minimum inhibitory concentration (MIC) [7]: 100
minimum inhibitory concentration (MIC) (Enterobacter 0655; Table 3): 100
minimum inhibitory concentration (MIC) ([2]; Table 3): 100
minimum inhibitory concentration (MIC) (Escherichia coli, NIHJ; Table 3): 100
minimum inhibitory concentration (MIC) ([3]; Table 3, MS 27): 50
minimum inhibitory concentration (MIC) (Shigella sonnei E 33; Table 3): 100
minimum inhibitory concentration (MIC) ([4]; Table 3): 50
minimum inhibitory concentration (MIC) (Escherichia coli, W 3630; Table 3): 100
minimum inhibitory concentration (MIC) ([5]; Table 3, 6538 P): 25
minimum inhibitory concentration (MIC) (Escherichia coli, RGN 14): 100
minimum inhibitory concentration (MIC) (Proteus rettgeri, ACR; Table 3): 100
minimum inhibitory concentration (MIC) (Proteus vulgaris, OX 19): 100

Cc1nnc(SCC2=C(C(=O)O)N3C(=O)C(NC(=O)C[S+]([O-])c4cccs4)[C@H]3SC2)s1 (stereo partly drawn) [Example 3, 7-(2-thienylsulfinylacetamido)-3-(5-methyl-1,3,4-thiadiazol-2-ylthiomethyl)-3-cephem-4-carboxylic acid]
minimum inhibitory concentration (MIC), in words ([6]; versus product similarly derived from the compound of the Comparative Example): much superior

CC(=O)OCC1=C(C(=O)O)N2C(=O)C(NC(=O)C[S+]([O-])c3ccncc3)C2SC1 (stereo not drawn) [Example 10, 7-(4pyridylsulfinylacetamido)cephalosporanic acid]
MIC ([1]; Salmonella enterica, ENTERITIDIS, Table 2): 3.2 µg/mL (≈ 7.28 µM)
MIC (Escherichia coli, NIHJ; Table 2): 0.8 µg/mL (≈ 1.82 µM)
MIC ([3]; MS27, Table 2, MS 27): 1.6 µg/mL (≈ 3.64 µM)
MIC (Shigella sonnei E 33; Shigella sonnei, E33, Table 2): 6.3 µg/mL (≈ 14.3 µM)
MIC ([4]; ATCC10031, Table 2): 0.8 µg/mL (≈ 1.82 µM)
MIC (Escherichia coli, W 3630; W3630, Table 2): 12.5 µg/mL (≈ 28.4 µM)
MIC ([5]; ATCC6538, Table 2, ATCC 6538 P, read-out: MIC): 0.4 µg/mL (≈ 0.91 µM)
MIC (Proteus rettgeri, ACR; Table 2, read-out: MIC): 100 µg/mL (≈ 228 µM)
MIC (Proteus vulgaris, OX 19; OX19, Table 2): 1.6 µg/mL (≈ 3.64 µM)

CC1=C(C(=O)O)N2C(=O)C(NC(=O)C[S+]([O-])c3cccs3)[C@H]2SC1 (stereo partly drawn) [Example 7, 7-(2-thienylsulfinylacetamido)-3-methyl-3-cephem-4-carboxylic acid]
microbial activity ([6]; versus product from 2-thienylsulfinylacetic acid having a negative specific rotary power): much superior

CC(=O)OCC1=C(C(=O)O)N2C(=O)C(NC(=O)C[S+]([O-])c3cccs3)C2SC1 (single isomer, unassigned) [Example 1, 7-(2-thienylsulfinylacetamido)cephalosporanic acid]
MIC (Pseudomonas aeruginosa; [9]): 100 µg/mL (≈ 225 µM)
minimum inhibitory concentration (MIC) ([1]; Table 1): 1.6 µg/mL (≈ 3.6 µM)
minimum inhibitory concentration (MIC) (Escherichia coli, NIHJ; Table 1): 1.6 µg/mL (≈ 3.6 µM)
minimum inhibitory concentration (MIC) ([3]; Table 1, ATCC MS 27): 1.6 µg/mL (≈ 3.6 µM)
minimum inhibitory concentration (MIC) (Shigella sonnei E 33; Table 1): 3.1 µg/mL (≈ 6.97 µM)
minimum inhibitory concentration (MIC) ([4]; Table 1): 0.8 µg/mL (≈ 1.8 µM)
MIC ([5]; ATCC6538, Table 1, ATCC 6538 P, read-out: minimum inhibitory concentration (MIC)): 0.8 µg/mL (≈ 1.8 µM)
MIC (Proteus rettgeri, ACR; [9]): 100 µg/mL (≈ 225 µM)

Cn1nnnc1SCC1=C(C(=O)[O-])N2C(=O)C(NC(=O)C[S+]([O-])c3cccs3)[C@H]2SC1.[Na+] (stereo partly drawn) [Example 4, sodium 7-(2-thienylsulfinylacetamido)-3-(1-methyl-1H-tetrazol-5-ylthiomethyl)-3-cephem-4-carboxylate]
bacterium-inhibiting activity ([6]; versus product derived in the same manner from 2-thienylsulfinylacetic acid having [α]D^22° of -9.2°): much superior

CC(=O)OCC1=C(C(=O)O)N2C(=O)C(NC(=O)C[S+]([O-])c3cccs3)C2SC1 (single isomer, unassigned) [Comparative Example, 7-(2-thienylsulfinylacetamido)cephalosporanicacid, reference compound]
minimum inhibitory concentration (MIC) (Pseudomonas aeruginosa; Table 1): 100 µg/mL (≈ 225 µM)
minimum inhibitory concentration (MIC) ([1]; Table 1): 12.5 µg/mL (≈ 28.1 µM)
minimum inhibitory concentration (MIC) (Escherichia coli, NIHJ; Table 1): 6.3 µg/mL (≈ 14.2 µM)
minimum inhibitory concentration (MIC) ([3]; Table 1, ATCC MS 27): 6.3 µg/mL (≈ 14.2 µM)
minimum inhibitory concentration (MIC) (Shigella sonnei E 33; Table 1): 25 µg/mL (≈ 56.2 µM)
minimum inhibitory concentration (MIC) ([4]; Table 1): 6.3 µg/mL (≈ 14.2 µM)
minimum inhibitory concentration (MIC) (Escherichia coli, W 3630; Table 1): 50 µg/mL (≈ 112 µM)
minimum inhibitory concentration (MIC) ([5]; Table 1, ATCC 6538 P): 1.6 µg/mL (≈ 3.6 µM)
minimum inhibitory concentration (MIC) (Proteus rettgeri, ACR; Table 1): 100 µg/mL (≈ 225 µM)
